Test results taken from patent US20220273588A1, “MONOAMINE OXIDASE B INHIBITORS FOR USE IN THE PREVENTION OR TREATMENT OF PROSTATE CARCINOMA” (TOXIE EUROPE INTELLIGENS KÉMIAI SZENZOROKAT KUTATÓ, …, priority 2019, published 2022).

Assays:
[1] = tested on: LNCaP cells; test: MTS reduction viability assay on LNCaP cells; assay type: cell-based, human; details: MTS method
Experimental: (§1) RPMI-1640 (Lonza) medium with 10% heat-inactivated FBS (fetal bovine serum, Sigma) and 100 U/ml Penicillin/Streptomycin was used to grow the cells. Cells were treated with drugs freshly dissolved in RPMI medium. Treatment concentrations were determined by widening the concentration range. After 48 h of treatment, cell viability was also quantified using the MTS reduction assay (Promega) as well as a CellTiter-Glo kit (Promega) based on ATP level measurements.
In the MTS reduction method (CellTiter 96® AQueous One Solution Cell Proliferation Assay, Promega Corp, Madison, […].), 20 microliters of MTS reagent was used per sample according to the manufacturer's protocol, and after 120 minutes of incubation, absorbance was measured at 492 nm with a microplate reader.
In the studies, we modified the protocol of Gordon et al (2014) as follows: • A volume of 20 microliters per well was used from the MTS reagent as recommended by the manufacturer (10 microliters were used by Grodon et al.). • In our case, an incubation time of 120 min was used to increase accuracy (Gordon et al incubated for 60 min). […] During validation, measurements were performed with a given number of cells per well, and absorbance values were plotted as a function of cell number. A calibration line was placed on the data points by linear regression analysis and the R^2 coefficient of determination was determined. […]

[2] = tested on: androgen-sensitive and castration-resistant human prostate cells; details: literature preclinical study; cited from earlier work
[3] = tested on: human PC3 xenograft; test: Tumor growth in NSG SCID mouse human PC3 xenograft model; assay type: in vivo; details: 10 mg/kg i.p. once daily from day 14, day 21
Description: For our experiments, we used 25 3-month-old male NOD (Non Obese Diabetic) SCID (Severe Combined ImmunoDeficiency) Gamma mice (National Institute of Oncology Animal House). Immunodeficiency in these mice (Shultz et al, 1995) is associated with decreased T and B lymphocyte and NK cell function, as well as deficiency is developed in cytokine signaling pathways, in adaptive and innate immune systems. During the experiment, the animals were housed in the animal house of the János Szentágothai Research Center of the University of Pecs, and they were provided with standard rodent food and tap water ad libitum. The animals were kept at 20-24° C., 50-60% relative humidity, in a 12-12 hour dark-light cycle. […]
RPMI-1640 (Lonza) medium with 10% heat-inactivated FBS (Sigma) and 100 U/ml Penicillin/Streptomycin was used to proliferate the PC3 cell line (Wesel, Germany), which was also used for in vitro experiments. […] Cell counts were determined after trypan blue staining with a LUNA II automated cell counter (Logos Biosystems) and 50 million cells were resuspended in 5 ml PBS. […]
On days 4, 7, 11, 14, 18, and 21 of the experiment, the length (a) and width (b) of the growing tumor were measured with a caliper, and then the tumor volume was calculated using the following formula (J B Wu et al., J Clin Invest., 124, 2891-2908): […]

[4] = tested on: LNCaP cells; test: CellTiter-Glo (ATP level) viability assay on LNCaP cells; assay type: cell-based, human; details: for viability of LNCaP cells, summary of the study: concentration-dependent manner, 48 h; for viability of LNCaP cells: 48 hours of treatment
Experimental: as §1
(§2) The CellTiter-Glo assay based on ATP level measurements was performed according to the manufacturer's protocol of pipetting 100 microliters of Celliter-Glo reagent into wells containing 100 microliters of medium, then shaking for 2 minutes and incubating for another 10 minutes. The luminescence signal was then detected with a PerkinElmer AlphaLisa instrument.
To reproduce the literature data, we also used the unpaired t-test also used by Gordon et al (2014) to compare control and treated groups. […] For some results (LNCaP chlororlin MTS method and LNCaP rasagiline and selegiline CellTiter-Glo method) Kruskal-Wallis non-parametric one-way ANOVA method was used with Dunn test, while in other cases one-way ANOVA method was used with Bonferroni post hoc test.
(§3) In our experiments, we performed three parallel experiments, and the experiments were repeated to increase the number of items. For the statistical analysis of two separate experiments the results were pooled, however, the absolute values obtained during the luminescence measurements cannot be used to combine the results. This is because the CellTiter-Glo reagent loses its activity during storage and possible thaw-freeze cycles. Thus, a CellTiter-Glo reagent from a single source can give different relative luminescence values (RLUs) at the same cell number in two different experiments performed at different times. However, in one experiment, the RLU reliably gives the cell number, and accordingly, the percentage viability value of the treated condition relative to the control RLU can be determined with certainty; values from different experimental series can be combined.
(§4) During the evaluation, we normalized to the mean of the control of the given experiment, so the mean of the control was 100% and the percentage of each individual data point relative to the mean of the control was calculated accordingly. One-way ANOVA with Bonferroni post hoc test with p<0.05 significance level was used for statistical validation of viability changes as described above.

[5] = tested on: PC3 cells; test: CellTiter-Glo (ATP level) viability assay on PC3 cells; assay type: cell-based, human; details: 48 h; for viability of PC3 cells: CellTiter-Glo; for viability of PC3 cells, summary of the study: concentration-dependent manner
Experimental: as §1, §2
To support the applicability of the CellTiter-Glo viability assay method, we validated the method on a PC3 cell line. In this procedure, the measurement was performed with a given number of living cells per well, and the relative luminescence values obtained were plotted as a function of the cell number. A calibration line was placed on the data points by linear regression analysis, and based on the R2 value, it was determined that the relative luminescence value obtained during the measurement was directly proportional to the number of living cells (FIG. 1/C).
as §3, §4

[6] = tested on: PC3 prostate carcinoma cell line; test: CellTiter-Glo viability assay on PC3 cells, selegiline, docetaxel and combinations; assay type: cell-based, human; details: 48 hours
Experimental: In our studies, we used a […] PC3 prostate carcinoma cell line. The culture of the cell line and the study of the effect of the combination of docetaxel and selegiline were performed as previously described, with the changes detailed below.
Selegiline, docetaxel, and selegiline+docetaxel combination studies were performed in parallel, simultaneously, with the same reagents, on a cell population from the same cell culture. For the selegiline, docetaxel and selegiline+docetaxel combination studies, the following changes were applied from the protocol according to the examples of the application: • Treatments with selegiline alone were performed at concentrations ranging from 250 μM to 1 mM (250 μM, 500 μM, 750 μM, 1 mM), while docetaxel alone was administered at a concentration of 1 μM. For combination treatments, 1 μM docetaxel was added to the concentrations corresponding to the selegiline treatments (250 μM selegiline+1 μM docetaxel, 500 μM selegiline+1 μM docetaxel, 750 μM selegiline+1 μM docetaxel, 1 mM selegiline+1 μM docetaxel). • For docetaxel and combination treatments, a 0.01% dimethyl sulfoxide (DMSO) solution prepared with complete RPMI medium (10% FBS, 100 U/ml Penicillin/Streptomycin; solution for culturing and treating PC3 cells) was used as a control. This was used as a solvent control, corresponding to the use of DMSO to prepare a 10 mM docetaxel stock solution. Thus, the 1 μM docetaxel treatments we used also contained 0.01% DMSO. • The change in cell viability induced by selegiline, docetaxel, and combinations thereof was measured after 48 hours with the CellTiter-Glo kit as previously described. • The experiments were performed in 3 different series, and for evaluation they were combined with the previously described normalization. Briefly, during the evaluation, we normalized to the mean of the untreated control in the given experiment, so the mean of the control was 100% and the percentage of each individual data point relative to the mean of the control was calculated accordingly. Because treatments with selegiline and docetaxel alone or in combination were performed in one experiment, we normalized to the mean of the untreated control without DMSO. […] A Shapiro-Wilk and Kolmogorov-Smirnov normality test was performed on the data set, followed by a one-way ANOVA test with a Holm-Sidak's multiple comparison test.

[7] = tested on: metastatic castration-resistant disease; details: patients; cited from earlier work

## C#CCN(C)CCCOc1ccc(Cl)cc1Cl [clorgylin]
[1]; 100 micromolar, 48 h of treatment
  viability of LNCaP cells: significantly reduced
[1]; 48 h
  viability of LNCaP cells, concentration dependence: concentration-dependent manner
[2]
  growth and proliferation of androgen-sensitive and castration-resistant human prostate cells: inhibited
  growth of enzalutamide-resistant cells: significantly reduced
[3]
  rate of tumor growth compared to the group treated with physiological saline: significantly reduced
[4]; 48 h clorgylin treatment, CellTiter-Glo
  viability of LNCaP cells, CellTiter-Glo compared with MTS method: results similar to the MTS method
[4]
  viability of LNCaP cells, summary of the study: significantly reduced
[5]; 1 mM
  viability of PC3 cells: significantly reduced
[5]; 100 micromolar
  viability of PC3 cells: significantly reduced
[5]
  viability of PC3 cells, summary of the study: significantly reduced

## CC(=O)O[C@@]12CO[C@@H]1C[C@H](O)[C@@]1(C)C(=O)[C@H](O)C3=C(C)[C@@H](OC(=O)[C@H](O)[C@@H](NC(=O)OC(C)(C)C)c4ccccc4)C[C@@](O)([C@@H](OC(=O)c4ccccc4)[C@H]21)C3(C)C [docetaxel]
[6]; 1 μM
  cell viability compared to the DMSO control: significantly reduced cell viability
[7]
  increase of overall survival, average: 2-3 months

## NNCCc1ccccc1 [phenelzine]
[2]
  growth and proliferation of androgen-sensitive and castration-resistant human prostate cells: inhibited

## C#CCN[C@@H]1CCc2ccccc21 [rasagiline]
[4]; 1 mM, CellTiter-Glo
  viability of LNCaP cells: trend is also clearly observed
[4]; 10 mM, CellTiter-Glo
  viability of LNCaP cells: significant viability-reducing effect
[4]
  viability of LNCaP cells, summary of the study: significantly reduced
[5]; 1 mM
  viability of PC3 cells: significant viability-reducing effect
[5]; 10 mM
  viability of PC3 cells: significant viability-reducing effect
[5]
  viability of PC3 cells, summary of the study: significantly reduced

## C#CCN(C)[C@H](C)Cc1ccccc1 [selegiline]
[6]; 250 μM to 1 mM
  viability of PC3 cells, concentration dependence: concentration-dependent manner
[6]; 750 μM, Example 3 series
  viability of PC3 cells: significant decrease in viability
[6]; 1 mM, Example 3 series
  viability of PC3 cells, effect of Example 1: reproduced
[3]
  rate of tumor growth compared to the group treated with physiological saline: significantly reduced
[4]; 1 mM, CellTiter-Glo
  viability of LNCaP cells: trend is also clearly observed
[4]; 10 mM, CellTiter-Glo
  viability of LNCaP cells: significant viability-reducing effect
[4]
  viability of LNCaP cells, summary of the study: significantly reduced
[5]; 1 mM
  viability of PC3 cells: significant viability-reducing effect
[5]; 10 mM
  viability of PC3 cells: significant viability-reducing effect
[5]
  viability of PC3 cells, summary of the study: significantly reduced
